These are literature values, as cited in patent US20220009914A1, “Analogs of Nitrofuran Antibiotics to Combat Resistance” (The Trustees of Indiana University, priority 2020, published 2022).

The subject of data set [1] is methicillin-resistant S. aureus. The settings on record: previously found; read-out: EC50 proliferation of methicillin-resistant S. aureus; cited from earlier work.
Another data set addresses T1, E. coli GroEL/ES (Escherichia coli, UniProt P0A6F5).
T1 construct: made in house; host or cells: GroEL in NEB 5-alpha E. coli; GroES in E. coli BL21 (DE3)
The following applies: read-out: IC50 GroEL/ES-mediated refolding of denatured malate dehydrogenase; previously found; cited from earlier work.

The test system of another data set is B. subtilis. The settings on record: previously found; read-out: EC50 proliferation of B. subtilis; cited from earlier work.

T1 sequence (P0A6F5 2-548): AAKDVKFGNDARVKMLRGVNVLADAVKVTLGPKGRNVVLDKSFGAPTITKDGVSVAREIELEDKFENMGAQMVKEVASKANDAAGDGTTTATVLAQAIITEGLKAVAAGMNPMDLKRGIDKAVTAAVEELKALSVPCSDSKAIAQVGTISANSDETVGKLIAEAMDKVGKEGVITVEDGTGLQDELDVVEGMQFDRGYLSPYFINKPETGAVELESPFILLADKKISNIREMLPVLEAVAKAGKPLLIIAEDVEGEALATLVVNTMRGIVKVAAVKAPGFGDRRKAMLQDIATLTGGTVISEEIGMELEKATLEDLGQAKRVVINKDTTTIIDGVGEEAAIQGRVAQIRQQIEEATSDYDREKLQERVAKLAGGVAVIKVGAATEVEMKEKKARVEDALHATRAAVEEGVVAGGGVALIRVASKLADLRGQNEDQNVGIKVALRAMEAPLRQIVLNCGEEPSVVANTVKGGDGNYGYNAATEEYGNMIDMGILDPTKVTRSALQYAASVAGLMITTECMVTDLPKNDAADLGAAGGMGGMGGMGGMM

As for `COc1ccc(C(=O)N/N=C/c2ccc(O)c3ncccc23)cc1` [Compound 1, N′-((8-hydroxyquinolin-5-yl)methylene)-4-methoxybenzohydrazide], the figures for the EC50 (in data set [1]; with B. subtilis) were 56 µM and 83 µM, respectively. On E. coli GroEL/ES, the IC50 is 31 µM.
